According to patent US6787564B2, “Optically active clausenamides, process of the preparation thereof, pharmaceutical composition containing the same and their medical use” (Institute of Materia Medica, Chinese Academy of Medical …, priority 2002, dated 2004):

What was measured:
[1] = tested on: dentate gyrus of hippocampus; assay: induction of LTP in hippocampal of rat (population spike amplitude); type: in vivo, SD rats; settings: I.C.V.; means ± SD
Excerpt: Adult male SD rats were anesthetized to maintain a surgical level. A stainless steel cannula-recording electrode was placed in DG (dentate gyrus) of hippocampus using a stereotaxic instrument. The combination of cannula-recording electrode was constructed by insulating the outside of the cannula, except at the tip and top. In the top noninsulated area, a stainless steel wire was wrapped around the cannula and connected to the amplifier via an amphenol connector. The four pairs optically active clausenamides shown in table 9 was delivered by I.C.V. Responses were evoked via direct stimulation of the performant path (PP) using a stainless steel bipolar stimulating electrode. Constant current stimulation provided by a stimulator was delivered to the stimulating electrode through a Stimulus Isolation Unit.
The stimulating electrode was adjusted until a characteristic EPSP was observed under constant current. The evoked responses were amplified on a series alternating current preamplifier, using a microcomputer, and then stored for off-line analysis using DataWave software. The current intensity that elicited a 50% maximal response in each animal was determined and used for all subsequent stimulation. To measure treatment effects, responses were evoked once every 30 sec throughout the entire experiment, and population spike amplitude(PSA) were calculated.

[2] = tested on: Human embryonic neural stem cells; assay: colony-form frequency in human embryonic neural stem cells; type: cell-based; settings: 1 μM; for Colonies, 6 weeks / Colonies, 4 weeks / Colonies, 3 weeks: N 4; for Colonies, 6 weeks: Control(DMSO) 22.25 ± 4.86; for Colonies, 4 weeks: Control(DMSO) 30.33 ± 4.99; for Colonies, 3 weeks: Mean ± SD, Control(DMSO) 43.00 ± 4.97
Procedure: Human embryonic brain neural stem cells(NSC) were dissociated enzymatically with 0.05% trypsin-0.53 mM EDTA and cultured in the DMEM/F12 medium with N2 supplement (GIBCO), fibroblast growth factor-2 (20 ng/ml), epidermal growth factor (20 ng/ml) at 37° C. The media were changed once every week. The single cell suspension from neurosphere cells of NSC was dissociated by 0.1% trypsin. 2×10^4 cells were seeded in a well of a 96-well plate. After 24 hours, the dose at 1 μM of tested chemical was added in a well. 6 chemicals, (−)neoclausenamide(−), (+)neoclausenamide(+), (−)epineoclausenamide(−), (+)epineoclausenamide(+), (−)cisneoclausenamide(−) and (+)cisneoclausenamide(+), were detected. 4 wells were used each group. The media with tested chemical were changed once every week. The colonies of NSC were formed and counted under a microscopy at 3 weeks, 4 weeks and 6 weeks.

[3] = tested on: animals with anisodine-induced memory impairment; assay: step-through test, memory impairment induced by anisodine; type: in vivo
Excerpt: (§1) This invention used one trial avoidance task—step-down and step-through tests and water maze to compare the improving memorial effects of (±), (−) clausenamide. The drugs were given orally once to animals before experiment in step-down and step-through tests. The water maze test lasted for 5 days in succession. The results were expressed as latency and errors number.

[4] = tested on: animals with anisodine-induced memory impairment; assay: memory impairment induced by anisodine in water maze test; type: in vivo
Excerpt: as §1

[5] = tested on: β-AP (25-35)-treated rats; assay: one trial passive avoidance of β-AP (25-35)-treated rats; type: in vivo; settings: β-AP-treated + vehicle, n = 8, MEAN ± S.E.M.
[6] = tested on: A β 25-35 treated rats; assay: Morris water maze, A β 25-35 induced impairment of memory; type: in vivo; settings: A β 25-35 alone
Excerpt: Pathological features of Alzheimer's disease (AD) include extensive neuronal loss and the presence of numerous neurofibrillary tangles and senile plaques in the brain. The senile plaques contain amyloid fibrils derived from a 39-43 amino acids peptide referred to as β-amyloid or A β which can produce neurotoxicity. A β 25-35 poccesses the similar neurotoxicity and ability of self-aggregation as A β 1-42. Administrated aggregated A β 25-35 into rat's lateral cerebral ventricle induced memory impairment in Morris water maze.
With increasing of training days, the initial heading angle became small. On the 3th day, the initial heading angle of A β group was larger than control. […] (see Tab.3)
There are four strategies for finding platform in Morris water maze: random, circle, taxis and line. In the beginning of training the search strategies for finding target is mainly circle and random, with the increasing of training, the percentage of the two strategies declined gradually, Beginning from the 3th day, declining speed in control and (−) clausenamide group was faster than A β,(+) clausenamide and piracetam groups.

[7] = tested on: dentate gyrus granule cells; assay: basal synaptic transmission / LTP in dentate gyrus of hippocampus in anesthetized rats (population spike amplitude); type: in vivo; settings: for decrease of PS amplitude compared with that of (−) clausenamide: 60 min
Excerpt: Drugs or vehicle injection were delivered via cannula in the lateral cerebral ventricle at final concentration of 2×10^−6 mol/L. The population spike (PS) amplitude was employed as an indication of the level of excitation of the granular cell population in the dentate gyrus. To obtain this measurement, an evoked response was generated in the dentate gyrus granule cell layer by stimulating the pp at low freguency (0.033 Hz) with. single square wave pulses of 0.15 ms duration The LTP formation must accord the following creteria: The PS amplitude increased is over 30% and this high PS amplitude can persist for 40 min.

[8] = tested on: animals; assay: memory in water maze test; type: in vivo
Excerpt: as §1

[9] = anisodine + drug 10 mg/kg (Tab 7)
[10] = anisodine + drug 50 mg/kg (Tab 7)

Row | Compound | PSA (%), 15 min [1] [%] | PSA (%), 30 min [1] [%] | PSA (%), 60 min [1] [%] | frequency of colonies of NSC vs control group at 6 weeks (in words) [2] | Colonies, 6 weeks [2] | Colonies, 4 weeks [2] | Colonies, 3 weeks [2] | other results
1 | CN1C(=O)[C@@H](O)[C@H]([C@@H](O)c2ccccc2)[C@H]1c1ccccc1 [(+)cisclausenamide, 3S4S5S6R (+)cisclausenamide] | 87.3 ± 4.4 | 102.9 ± 5.9 | 122.5 ± 14.5 |  |  |  |  | 
2 | CN1C(=O)[C@H](O)[C@@H]([C@@H](O)c2ccccc2)[C@H]1c1ccccc1 [(+)cisneoclausenamide, 3R4R5S6R (+)cisneoclausenamide] | 135.0 ± 12.9 | 150.9 ± 19.9 | 192.3 ± 22.4 | not any difference | 24.00 ± 4.69 | 42.50 ± 10.01 | 47.00 ± 9.03 | 
3 | CN1C(=O)[C@H](O)[C@H]([C@H](O)c2ccccc2)[C@H]1c1ccccc1 [(+)epiclausenamide, 3R4S5S6S (+)epiclausenamide] | 136.0 ± 22.8 | 147.5 ± 15.0 | 207.8 ± 12.8 |  |  |  |  | 
4 | CN1C(=O)[C@H](O)[C@H]([C@@H](O)c2ccccc2)[C@@H]1c1ccccc1 [(+)epineoclausenamide, 3R4S5R6R(+)epineoclausen amide] |  |  |  | not any difference | 26.00 ± 2.94 | 38.50 ± 5.02 | 49.75 ± 10.26 | 
5 | CN1C(=O)[C@H](O)[C@@H]([C@H](O)c2ccccc2)[C@@H]1c1ccccc1 [(−)cisclausenamide, 3R4R5R6S (−)cisclausenamide] | 126.2 ± 2.3 | 141.2 ± 8.6 | 205.4 ± 24.7 |  |  |  |  | 
6 | CN1C(=O)[C@@H](O)[C@H]([C@H](O)c2ccccc2)[C@@H]1c1ccccc1 [(−)cisneoclausenamide, 3S4S5R6S (−)cisneoclausenamide] | 94.1 ± 6.7 | 98.2 ± 6.6 | 94.9 | significantly difference | 33.50 ± 4.20 | 35.25 ± 7.46 | 49.50 ± 5.43 | 
7 | CN1C(=O)[C@@H](O)[C@@H]([C@@H](O)c2ccccc2)[C@@H]1c1ccccc1 [(−)epiclausenamide, 3S4R5R6R (−)epiclausenamide] | 97.8 ± 21.7 | 91.2 ± 22.5 | 117.3 ± 22.5 |  |  |  |  | 
8 | CN1C(=O)[C@@H](O)[C@@H]([C@H](O)c2ccccc2)[C@H]1c1ccccc1 [(−)epineoclausenamide, 3S4R5S6S(−)epineoclausenamide] |  |  |  | significantly difference | 32.50 ± 7.05 | 36.75 ± 7.59 | 58.00 ± 13.02 | 
9 | CN1[C@@H]2CC(OC(=O)[C@@](O)(CO)c3ccccc3)C[C@H]1[C@@H]1O[C@@H]12 (stereo partly drawn) [Anisodine, reference compound] |  |  |  |  |  |  |  | Error number ([3]; anisodine 10 mg/kg alone, 0.9% Nacl 2.0 ± 3.8 (Tab 7)): 14.1 ± 8.9; Latencies ([3]; anisodine 10 mg/kg alone, 0.9% Nacl 152.1 ± 64.2, N = 10 (Tab 7)): 35.8 ± 76.4 s; Errors number ([4]; anisodine group alone, 10 animals): 15.9 ± 11.3
10 | A β 25-35: β-amyloid fragment with neurotoxicity and self-aggregation like A β 1-42; icv injection induces memory impairment (GSNKGAIIGLM; Amyloid-beta protein 42; UniProt P05067 696-706, looked up, fragment) |  |  |  |  |  |  |  | Number of error, Acquisition ([5]; sham-operated + vehicle 0.3 ± 0.12): 0.9 ± 0.33; Number of error, Training ([5]; sham-operated + vehicle 1.6 ± 0.42): 2.6 ± 0.71; initial heading angle, training day 5 ([6]; control 15.4 ± 20.4): 46.7 ± 19.4; initial heading angle, training day 4 ([6]; control 29.6 ± 10.7): 60.6 ± 23.8; initial heading angle, training day 3 ([6]; control 47.3 ± 15.1): 73.6 ± 20.3; initial heading angle, training day 2 ([6]; control 76.8 ± 29.8): 98.7 ± 30.4; initial heading angle, training day 1 ([6]; control 93.6 ± 34.6): 106.3 ± 29.8
11 | Racemic clausenamide [(±) clausenamide, reference compound] |  |  |  |  |  |  |  | Error number [3, 9]: 11.3 ± 21.5; Latencies [3, 9]: 43.0 ± 65.8 s; Error number [3, 10]: 14.4 ± 12.3; Latencies [3, 10]: 79.9 ± 63.6 s; Errors number ([4]; anisodine + drug 10 mg/kg): 16.6 ± 23.9; Errors number ([4]; anisodine + drug 100 mg/kg): 9.11 ± 3.8; effect on PS amplitude (in words) ([7]; 2 μM to 10 μM): inhibitory effect on PS amplitude; decrease of PS amplitude compared with that of (−) clausenamide ([7]; first of the two concentrations (2 μM)): 44%; decrease of PS amplitude compared with that of (−) clausenamide ([7]; second of the two concentrations (10 μM)): 55%; LTP formation (PS amplitude increase over 30% persisting 40 min) ([7]; (−) at 2×10^−6 mol/L, (±) up to 5 times that): could not induce LTP; Lalencies reaching platform, 3rd day ([8]; 10 mg/kg): 23.9 ± 22.6 s; Lalencies reaching platform, 4th day ([8]; 10 mg/kg): 17.1 ± 14.3 s; Lalencies reaching platform, Second day ([8]; 10 mg/kg): 35.8 ± 35.2 s; Lalencies reaching platform, 3rd day ([8]; 50 mg/kg): 25.7 ± 13.8 s; Lalencies reaching platform, 4th day ([8]; 50 mg/kg): 14.6 ± 10.4 s; Lalencies reaching platform, Second day ([8]; 50 mg/kg): 36.6 ± 37.0 s
